Data published in patent US20090318451A1, “[…] AGONISTS FOR THE TREATMENT OF PAIN” (Pfizer Inc., priority 2007, published 2009).
Where two headings read alike, the source gives them in different places.

How the values were obtained:
[1] = molecular target: T1, human Dopamine D3 receptor (Homo sapiens, UniProt P35462); experiment: Inhibition via dopamine D3 receptors of forskolin-stimulated adenylate cyclase activity (cAMP, hD3CHO cells); type: cell-based; details: for functional selectivity for D3 over D2: D2 EC50 divided by D3 EC50, 10000 used where D2 EC50 >10000
T1 construct: expressed in transfected cells; host or cells: CHO (dihydrofolate reductase deficient), generated in house
T1 sequence (P35462 whole entry): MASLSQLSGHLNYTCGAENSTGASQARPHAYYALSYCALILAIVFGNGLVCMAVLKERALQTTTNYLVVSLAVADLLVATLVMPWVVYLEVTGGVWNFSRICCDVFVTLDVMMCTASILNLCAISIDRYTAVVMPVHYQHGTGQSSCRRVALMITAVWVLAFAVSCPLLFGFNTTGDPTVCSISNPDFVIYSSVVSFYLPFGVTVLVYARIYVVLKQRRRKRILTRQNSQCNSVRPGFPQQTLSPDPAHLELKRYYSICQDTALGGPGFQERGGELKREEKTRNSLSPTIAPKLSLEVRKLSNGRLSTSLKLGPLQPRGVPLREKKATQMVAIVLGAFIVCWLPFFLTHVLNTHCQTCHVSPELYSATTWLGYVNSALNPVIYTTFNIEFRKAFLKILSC

D3 dopamine receptor = D3 dopamine receptor (Homo sapiens, UniProt P35462); experiment: In vitro binding (membrane preparation), human recombinant receptors, D3
D3 dopamine receptor, sequence (P35462 whole entry): as above

D1 = D1 (Homo sapiens, UniProt P21728); experiment: In vitro binding (membrane preparation), human recombinant receptors, D1
D1, sequence (P21728 whole entry): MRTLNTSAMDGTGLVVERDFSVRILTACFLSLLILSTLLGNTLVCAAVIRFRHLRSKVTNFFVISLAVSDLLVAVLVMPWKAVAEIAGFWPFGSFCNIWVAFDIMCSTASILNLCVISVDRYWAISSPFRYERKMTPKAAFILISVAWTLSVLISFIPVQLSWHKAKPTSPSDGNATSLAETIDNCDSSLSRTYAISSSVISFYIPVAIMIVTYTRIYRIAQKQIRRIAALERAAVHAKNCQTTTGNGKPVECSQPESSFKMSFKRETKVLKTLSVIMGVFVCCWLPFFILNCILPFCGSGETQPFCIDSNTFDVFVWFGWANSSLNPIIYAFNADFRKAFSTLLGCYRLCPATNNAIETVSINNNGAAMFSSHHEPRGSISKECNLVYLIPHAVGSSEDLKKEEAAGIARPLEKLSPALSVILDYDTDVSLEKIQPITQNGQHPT

D5 = D5 (Homo sapiens, UniProt P21918); experiment: In vitro binding (membrane preparation), human recombinant receptors, D5
D5, sequence (P21918 whole entry): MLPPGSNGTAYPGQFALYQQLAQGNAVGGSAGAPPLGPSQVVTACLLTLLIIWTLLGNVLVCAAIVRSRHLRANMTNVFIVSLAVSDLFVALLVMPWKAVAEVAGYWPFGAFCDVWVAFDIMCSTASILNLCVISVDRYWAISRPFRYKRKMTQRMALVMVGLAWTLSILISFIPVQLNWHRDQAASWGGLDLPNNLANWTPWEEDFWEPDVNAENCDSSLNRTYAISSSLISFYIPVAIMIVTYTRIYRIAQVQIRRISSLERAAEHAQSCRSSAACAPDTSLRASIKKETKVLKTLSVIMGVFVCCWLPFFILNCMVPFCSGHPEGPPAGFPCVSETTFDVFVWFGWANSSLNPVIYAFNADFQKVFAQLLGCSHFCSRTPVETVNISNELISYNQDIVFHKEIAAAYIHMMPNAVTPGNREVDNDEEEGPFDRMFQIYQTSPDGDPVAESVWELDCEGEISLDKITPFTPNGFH

[2] = test system: Hotplate paw withdrawal latency (rats); experiment: Hotplate paw withdrawal latency; type: in vivo, rat
[3] = test system: Capsaicin-induced hyperalgesia; experiment: Capsaicin-induced hyperalgesia, static and dynamic allodynia endpoint; type: in vivo, rat
[4] = Free plasma concentration after oral dosing in pain model rats; details: for peak free-plasma concentration / predicted free-plasma exposure: based on the known PK profile, 0.1 mg/kg
D4 dopamine receptor [5] = molecular target: T2, D4 dopamine receptor (Homo sapiens, UniProt P21917); experiment: Functional inhibition of forskolin-stimulated cAMP accumulation in human recombinant cell lines, D4; type: cell-based
T2 construct: expressed in transfected cells
T2 sequence (P21917 1-419): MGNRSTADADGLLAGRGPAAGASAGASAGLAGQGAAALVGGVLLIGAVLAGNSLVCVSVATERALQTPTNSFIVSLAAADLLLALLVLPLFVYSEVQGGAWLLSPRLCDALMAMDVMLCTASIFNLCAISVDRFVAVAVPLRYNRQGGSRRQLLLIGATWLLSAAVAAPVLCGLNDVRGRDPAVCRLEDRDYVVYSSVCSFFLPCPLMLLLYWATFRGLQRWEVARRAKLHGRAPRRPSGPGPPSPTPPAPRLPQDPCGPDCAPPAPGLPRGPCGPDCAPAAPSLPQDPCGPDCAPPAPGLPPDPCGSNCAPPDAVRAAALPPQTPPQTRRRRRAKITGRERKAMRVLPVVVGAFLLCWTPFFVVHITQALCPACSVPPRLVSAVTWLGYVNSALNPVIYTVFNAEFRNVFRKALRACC

[6] = test system: Plantar surgery-induced static and dynamic allodynia (rats); experiment: Plantar surgery model of postsurgical pain, static and dynamic allodynia; type: in vivo, rat
[7] = test system: MIA-induced static allodynia (rats); experiment: Monosodium iodoacetate (MIA)-induced static allodynia; type: in vivo, rat
[8] = molecular target: T3, human dopamine D2long receptor (Homo sapiens, UniProt P14416); experiment: Inhibition via dopamine D2 receptors of forskolin-stimulated adenylate cyclase activity (cAMP, GH4C1/hD2L cells); type: cell-based
T3 construct: expressed in transfected cells; host or cells: GH4C1 rat pituitary cells
T3 sequence (P14416 whole entry): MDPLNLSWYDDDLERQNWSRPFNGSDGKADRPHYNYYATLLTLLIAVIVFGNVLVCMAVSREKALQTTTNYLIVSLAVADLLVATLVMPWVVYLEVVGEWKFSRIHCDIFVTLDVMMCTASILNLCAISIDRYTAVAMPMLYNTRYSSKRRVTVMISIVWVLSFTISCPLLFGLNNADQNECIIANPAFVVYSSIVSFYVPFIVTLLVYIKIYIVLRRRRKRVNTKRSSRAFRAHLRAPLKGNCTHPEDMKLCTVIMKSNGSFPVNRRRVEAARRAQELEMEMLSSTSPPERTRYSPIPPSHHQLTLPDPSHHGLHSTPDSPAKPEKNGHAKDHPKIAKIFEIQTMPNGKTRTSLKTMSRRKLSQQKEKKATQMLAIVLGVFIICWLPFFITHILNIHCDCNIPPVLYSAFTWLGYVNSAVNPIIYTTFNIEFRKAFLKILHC

D2 dopamine receptor = D2 dopamine receptor (Homo sapiens, UniProt P14416); experiment: In vitro binding (membrane preparation), human recombinant receptors, D2
D2 dopamine receptor, sequence (P14416 whole entry): as above

[9] = test system: CCI-induced static and dynamic allodynia (rats); experiment: Chronic constriction injury (CCI) of sciatic nerve, static and dynamic allodynia; type: in vivo, rat
[10] = test system: MIA-induced weight deficit (rats); experiment: MIA-induced weight-bearing deficit; type: in vivo, rat
D4 dopamine receptor [11] = molecular target: T2, D4 dopamine receptor; experiment: In vitro binding (membrane preparation), human recombinant receptors, D4

CCCN1CCO[C@H](c2cccc(O)c2)C1.Cl [Example 8, R-(−)-3-(4-Propylmorpholin-2-yl)phenol hydrochloride]
EC50 [1]: 0.0076 µM
functional selectivity for D3 over D2 [1]: 1315.8 fold

CCCN1C[C@@H](c2ccc(N)nc2)OC[C@@H]1C [Example 67, 5-[(2R,5S)-5-methyl-4-propylmorpholin-2-yl]pyridin-2-amine]
Ki (D3 dopamine receptor): 0.215 µM
binding selectivity over D2 dopamine receptor (D3 dopamine receptor; D3 versus D2 binding): > 46 fold
IC50 (D1): > 10 µM
IC50 (D5): > 10 µM
efficacy in hotplate model (paw withdrawal latency) ([2]; rat, oral 0.01, 0.03, 0.1 and 1.0 mg/kg, hotplate 52° C.): no efficacy
Minimum Effective Dose, hotplate paw withdrawal latency ([2]; rats, oral): No effect up to 1.0 mg/kg oral
Minimum Effective Dose, capsaicin-induced hyperalgesia ([3]; oral): 0.01 mg/kg oral
dose giving optimal effect in capsaicin model ([3]; rat, oral pre-dosing): 1 mg/kg
effect on capsaicin-induced static and dynamic allodynia ([3]; rat, oral pre-dosing 0.01, 0.1 and 1 mg/kg, capsaicin 1 hour after dosing): dose response
peak free-plasma concentration / predicted free-plasma exposure ([4]; oral 0.1 mg/kg): 10 nM
peak free-plasma concentration / predicted free-plasma exposure ([4]; oral 0.1 mg/kg, listed as 5-[(2R,5S)-5-methyl-4-propylmorpholin-2-yl]pyridin-2-amine): approximately 10 nM
measured mean free Cmax for MED, MIA-induced static allodynia ([4]; rats, 0.01 mg/kg oral): 1.85 nM
free plasma concentration ([4]; rats, oral 0.01 mg/kg): 1.85 nM
free plasma concentration ([4]; rats, oral 0.03 mg/kg): 5.70 nM
free plasma concentration ([4]; rats, oral 0.1 mg/kg): 10.77 nM
functional selectivity for D3 over D2 [1]: > 470 fold
Emax ([1]; D3, CHO cells, full agonist, normalised to pramipexole, read-out: % Emax): 95%
functional selectivity over D4 dopamine receptor ([1]; D3 versus D4, cAMP): 180 fold
Emax ([1]; forskolin-stimulated cAMP accumulation, (95% CI), read-out: % Emax, D3): 95%
EC50 (D4 dopamine receptor [5]): 3.9 µM
Emax (D4 dopamine receptor [5]; forskolin-stimulated cAMP accumulation, (95% CI)): 92%
oral dose giving maximal effect on surgery-induced allodynia [6]: 0.1 mg/kg
reversal of surgery-induced static and dynamic allodynia ([6]; oral): dose-dependent reversal
Minimum Effective Dose, MIA-induced static allodynia ([7]; oral): 0.01 mg/kg
reversal of MIA-induced static allodynia ([7]; oral 0.1 mg/kg): full reversal
reversal of MIA-induced static allodynia ([7]; oral 0.01, 0.03 and 0.1 mg/kg): dose response in reversal of the allodynia
EC50 [8]: > 10 µM
% Response @ 10 μM, D2 ([8]; 10 μM, response as percentage of the effect to pramipexole, (95% CI)): % Response @ 10 μM = 36 (19-56)
IC50 (D2 dopamine receptor): > 10 µM
Minimum Effective Dose, CCI-induced static and dynamic allodynia ([9]; oral): No effect up to 0.1 mg/kg oral
effect on CCI-induced static and dynamic allodynia ([9]; oral 0.1 mg/kg): no effects
Minimum Effective Dose, MIA-induced weight deficit ([10]; oral, single-dose study): 0.1 mg/kg oral single-dose study
efficacy on weight-bearing deficit following MIA injection ([10]; single dose 0.1 mg/kg): efficacy similar to optimal opioid treatment
Ki (D4 dopamine receptor [11]): 4.16 µM

CC(C)C[C@H](CN)CC(=O)O [pregabalin, reference compound]
effect in capsaicin model, positive control compared with Example 67 at 1 mg/kg ([3]; rat, 30 mg/kg): equivalent in magnitude

N#Cc1ccc2c(c1)CCN(CCC1CCC(NC(=O)c3ccnc4ccccc34)CC1)C2 (stereo not drawn) [quinoline-4-carboxylic acid (4-[2-(6-cyano-3,4-dihydro-1H-isoquinolin-2-yl)ethyl]cyclohexyl)-amide, reference compound]
effect of 0.1 mg/kg of the compound of Example 67 on MIA allodynia after D3 antagonist ([7]; antagonist oral 3 mg/kg): abolished

COc1cccc(C2(O)CCCCC2CN(C)C)c1 (stereo not drawn) [tramadol, reference compound]
reversal of MIA-induced static allodynia, positive control ([7]; 100 mg/kg): full reversal
